Square brackets hold non-standard residues; d marks the D form. Peptide text beside a SMILES is read from it. * marks the point of attachment. EDDnp = O=[N+]([O-])c1ccc(NCCN*)c([N+](=O)[O-])c1; Dnp = O=[N+]([O-])c1ccc(*)c([N+](=O)[O-])c1; 2Abz = Nc1ccccc1C(=O)O
Experiments:
Type in all cases: biochemical
secPHEX [1] = target: T1, secPHEX (Homo sapiens, UniProt P78562); assay: Determination of secPHEX activity and concentration in serum with fluorigenic substrate; conditions: activity determination in serum
T1 construct: pure soluble form of PHEX (secPHEX); made in house
T1 sequence (P78562 46-749 limits assumed): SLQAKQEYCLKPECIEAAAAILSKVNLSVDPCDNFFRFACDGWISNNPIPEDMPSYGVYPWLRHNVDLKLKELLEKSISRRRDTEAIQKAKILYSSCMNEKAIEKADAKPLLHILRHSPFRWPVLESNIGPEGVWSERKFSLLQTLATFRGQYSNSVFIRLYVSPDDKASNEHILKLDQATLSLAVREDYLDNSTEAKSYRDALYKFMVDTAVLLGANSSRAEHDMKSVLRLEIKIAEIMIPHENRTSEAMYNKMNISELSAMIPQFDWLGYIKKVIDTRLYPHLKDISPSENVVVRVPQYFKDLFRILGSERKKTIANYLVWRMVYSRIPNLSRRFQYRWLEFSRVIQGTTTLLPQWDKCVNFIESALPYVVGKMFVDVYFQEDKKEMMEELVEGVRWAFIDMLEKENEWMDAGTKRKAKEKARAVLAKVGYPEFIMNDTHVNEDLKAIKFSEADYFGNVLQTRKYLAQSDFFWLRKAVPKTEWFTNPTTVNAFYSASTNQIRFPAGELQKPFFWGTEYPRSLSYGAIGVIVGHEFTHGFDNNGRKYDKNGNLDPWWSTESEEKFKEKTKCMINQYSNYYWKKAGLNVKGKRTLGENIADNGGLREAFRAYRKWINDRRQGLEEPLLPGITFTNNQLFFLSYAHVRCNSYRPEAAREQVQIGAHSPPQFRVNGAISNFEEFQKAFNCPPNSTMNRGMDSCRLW
Procedure: FIG. 6 graphically illustrates the secPHEX enzymatic activity on a fluorigenic substrate of the present invention in rat serum. The observed fluorescence increase was proportional to the reaction product formation. The reaction was carried out in a total volume of 200 μl constituted of buffer: 50 mM Hepes (NaOH) pH 7.4, 150 mM NaCl, 5*10−6 M captopril (ACE inhibitor), containing 10 μl of rat serum in which purified sPHEX was spiked. The enzymatic reaction was initiated by the addition of the fluorigenic substrate (Abz-GFSDYK-Dnp) (SEQ ID NO:3) at a final concentration of 20 μM. The fluorescent reaction product was excited at 320 nm and fluorescence recorded at 420 nm every four minutes over a one-hour period in a 96-well plate reader (Perkin-Elmer, HTS-7000). The initial enzymatic speed rate of the reaction was calculated for each condition. The reaction was carried out in presence of 5 mM EDTA to assess whether the assay is specific to metallopeptidase. Measurements were done in duplicates.
secPHEX enzymatic activity was determined using a fluorigenic substrate where increase of fluorescence was proportional to substrate conversion to products. […] Of these, S3 was the most preferred substrate. […]
The reaction was carried out in a total volume of 200 μl constituted of buffer (50 mM Mes(NaOH) pH 6.5, 150 mM NaCl, 5×10^−6 M captopril (ACE inhibitor)) and serum (preferably between 2 to 50 μl). […] The fluorescent reaction product is excited at 320 nm with fluoresce emission read at 420 nm every four minutes over a one-hour period using 96-well plate reader (Perikin-Elmer, HTS-7000™). The initial reaction rate was calculated from the acquired fluorescence-time data as a slope using Microsoft Excell™. PHEX Enzymatic activity (Vi) was calculated by subtracting to the initial rate of fluorescence (Vitot) with the same measured in presence of EDTA 5 mM (ViEDTA). […]
The actual secPHEX concentration was determined from a calibration curve (Vi Vs secPHEX concentration) obtained by serial dilution of secPHEX in serum or other biological media as required.

secPHEX [2] = target: T1, secPHEX; assay: pH activity profile and NaCl dependence of secPHEX hydrolysis
Procedure: FIG. 2 graphically illustrates pH and NaCl (inset) dependence of Abz-GFSDYK(Dnp)-OH (SEQ ID NO:3) hydrolysis by secPHEX. * k,t/Km values for the hydrolysis of Abz-GFSDYK(Dnp)-OH (SEQ ID NO:3) by PHEX were determined in presence of different buffers and pH conditions as described herein under the heading “Experimental Procedures” below. In the inset, the effect of NaCl is shown: Abz-GFSDYK(Dnp)-OH (SEQ ID NO:3) was incubated with secPHEX in 0.01 M Bis-Tris buffer, pH 5.5 with NaCl (0 to 0.5 M);
The pH dependence was studied using […] of Abz-GFSDYK(Dnp)-OH (SEQ ID NO:3) over a pH range of 3.5 to 8.5. The buffers used were as follows: 0.01 M sodium acetate (3.5<pH<5.1), 0.01 M Bis-Tris (5.1<pH<6.5), 0.01 M Hepes (6.5<pH<7.4) and 0.01 M Tris-HCI (7.4<pH<8.4), containing 0.14 M NaCl. Enzymatic activity was followed at 37° C. using the continuous fluorimetric assay and the apparent second-order rate constant (*kcat/Km) was calculated as described above for each pH.
The influence of salt on secPHEX catalytic activity was investigated using 0.2 μM of Abz-GFSDYK(Dnp)-OH (SEQ ID NO:3) as substrate at 37° C., in 0.01 M Bis-Tris buffer, pH 5.5, over a NaCl range of 0 to 500 mM. The increase in fluorescence was continuously measured at 37° C. and the apparent second-order rate constant (*kcat/Km) for the different NaCl concentrations was calculated as described above.

secPHEX [3] = target: T1, secPHEX; assay: IC50 determination of PHEX inhibitor, fluorigenic substrate assay
Procedure: secPHEX enzymatic activity was determined using a fluorigenic substrate where increase of fluorescence was proportional to substrate conversion to products. […] Of these, S3 was the most preferred substrate. S3 was synthesized as described above.
The reaction was carried out in a total volume of 200 μl constituted of buffer (50 mM Mes(NaOH) pH 6.5, 150 mM NaCl) containing various concentrations of the tested PHEX inhibitor (3×10^−5 to 1×10^−11 M) and 100 ng of purified secPHEX. The enzymatic reaction was initiated with the addition of the fluorigenic substrate at a final concentration of 10 μM. The fluorescent reaction product was excited at 320 nm with fluoresce emission read at 420 nm every four minutes over a one-hour period using 96-well plate reader (Perkin-Elmer, HTS-7000™). The initial reaction rate was calculated from the acquired fluorescence-time data as a slope using Microsoft Excell™. Further examples can be found in the co-pending PCT application number PCT/CA03/01893.
IC50 was determined with a plot of the initial rates computed above as a function of inhibitor concentration using the one site competition equation of GraphPad Prism™ version 3.03 (GraphPad™ Software Inc.).

[4] = target: T2, membrane-bound PHEX (mPHEX) (Homo sapiens, UniProt P78562); assay: Membrane-bound PHEX activity with NEP-specific substrate and inhibitor; conditions: 10 μM substrate, 30 minutes
T2 construct: expressed in transfected cells; host or cells: LLC-PK1 (porcine kidney cells)
Procedure: (§1) FIG. 4 graphically illustrates the activity of PHEX in the presence of NEP-specific substrate and inhibitor. NEP, secPHEX and membrane-bound PHEX (mPHEX) activities were measured after 30 minutes of incubation in presence of either 10 μM Abz-DRRL-EDDnp (SEQ ID NO:8) (A) or 10 μM Abz-GFSDYK(Dnp)-OH (SEQ ID NO:3) (B). Fluorescence detection (AFU) at γem=420 nm and γex=320 nm was determined as described under the heading “Experimental Procedures” below. When present, thiorphan, a NEP-specific inhibitor, was at a concentration of 10^−6 M. Data are a compilation of three different experiments;
(§2) The activities of membrane-bound PHEX and secPHEX were also compared with the NEP-specific substrate Abz-DRRL-EDDnp (SEQ ID NO:8) (46).

secPHEX [5] = target: T1, secPHEX; assay: secPHEX activity with NEP-specific substrate and inhibitor; conditions: 10 μM substrate, 30 minutes
Procedure: as §1, §2

T2 sequence (P78562 whole entry): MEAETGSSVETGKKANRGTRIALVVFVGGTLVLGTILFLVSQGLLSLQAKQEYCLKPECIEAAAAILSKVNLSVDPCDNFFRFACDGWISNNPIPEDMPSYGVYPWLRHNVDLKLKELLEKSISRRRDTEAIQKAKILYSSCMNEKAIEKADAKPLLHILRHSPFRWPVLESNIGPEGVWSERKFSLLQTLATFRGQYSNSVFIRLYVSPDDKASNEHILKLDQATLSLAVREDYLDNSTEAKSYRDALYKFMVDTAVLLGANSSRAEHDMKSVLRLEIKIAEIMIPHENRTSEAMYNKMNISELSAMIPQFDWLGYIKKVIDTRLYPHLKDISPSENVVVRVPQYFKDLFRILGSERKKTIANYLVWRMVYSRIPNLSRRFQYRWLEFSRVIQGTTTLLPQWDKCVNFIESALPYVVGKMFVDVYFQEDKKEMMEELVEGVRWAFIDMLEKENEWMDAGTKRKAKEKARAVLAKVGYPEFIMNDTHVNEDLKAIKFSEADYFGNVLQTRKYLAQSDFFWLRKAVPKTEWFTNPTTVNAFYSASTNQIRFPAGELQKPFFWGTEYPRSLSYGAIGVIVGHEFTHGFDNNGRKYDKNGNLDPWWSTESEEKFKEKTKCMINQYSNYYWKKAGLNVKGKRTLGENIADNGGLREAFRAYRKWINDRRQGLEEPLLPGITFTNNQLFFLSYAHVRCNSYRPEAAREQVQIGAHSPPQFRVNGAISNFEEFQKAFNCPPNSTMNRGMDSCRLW

Row | SMILES | suitability as secPHEX substrate (secPHEX [1]) | kcat/Km with 150 mM NaCl lower than in the absence of added salt (secPHEX [2]; 10 mM Bis Tris, pH 5,5) | pH of maximum kcat/Km (secPHEX [2]; pH range of 3.5 to 8.5, 37° C.) | suitability as secPHEX substrate (secPHEX [3]) | hydrolysis of NEP-specific substrate [4] | hydrolysis of NEP-specific substrate (secPHEX [5])
1 | Nc1ccccc1C(=O)NCC(=O)N[C@@H](Cc1ccccc1)C(=O)N[C@@H](CO)C(=O)N[C@@H](CC(=O)O)C(=O)N[C@@H](Cc1ccc(O)cc1)C(=O)N[C@@H](CCCCNc1ccc([N+](=O)[O-])cc1[N+](=O)[O-])C(=O)O [I-Abz-GFS↓DYK(Dnp)-OH, Abz-GFSDYK(Dnp)-OH] (H-[2Abz]GFSDYK(Dnp)-OH) | good secPHEX substrate | more than 2 fold | ~5.5 | good secPHEX substrate | – | –
2 | CC(C)C[C@H](NC(=O)[C@H](CCCNC(=N)N)NC(=O)[C@H](CCCNC(=N)N)NC(=O)[C@H](CC(=O)O)NC(=O)c1ccccc1N)C(=O)NCCNc1ccc([N+](=O)[O-])cc1[N+](=O)[O-] [Abz-DRRL-EDDnp] (H-[2Abz]DRRL-EDDnp) | – | – | – | – | Neither enzyme hydrolyzed this substrate | Neither enzyme hydrolyzed this substrate
